Patent US10781224B2, “Bis(oxymethyl)phosphinic acid and biogenic metal salts thereof as regulators of plant growth and development” (priority 2016, dated 2020)

Legend:
Format in all cases: in vivo
[1] = test system: spring wheat seeds: contamination by mold, alternaria, bacteriosis; assay: Phytopathological properties (seed contamination) of treated spring wheat seeds
Method: (§1) Experimental versions—soaking seeds in BHMPA solutions and solutions of BHMPA Ca, Mg, Na, Co, Mn, Cu, and Zn salts at 1·10^−6-1·10^−12% concentrations (doses). The studies were conducted in laboratory in Petri dishes; seed bed—two layers of filter paper. 50 seeds soaked in water (control) and in the solutions of the tested compounds (experimental) were placed into each dish. Wheat, corn, and rice seeds were exposed for one hour.
(§2) Analysis was conducted according to the government standards GOST 12038-84 “Crop seeds. Technical conditions for determining the germination energy and germination rate”, GOST 12044-93 “Crop seeds. Methods for determining disease contamination.”
(§3) The study of the effect of pre-sowing seed treatment with BHMPA was conducted on winter wheat (Kazan-500 variety) and spring wheat (Ekada-66 variety).
The effect of the treatment with BHMPA on phytopathological properties of spring wheat seeds was examined and the results are presented in Table II. […] The biological activity in this case was 64.4%. In other samples, contamination of the seeds also remained lower than that of the control. Treatment of seeds with BHMPA solutions reduced their overall contamination.

[2] = test system: spring wheat (Ekada-66 variety); assay: Spring wheat seed treatment: germination rate and plant height (laboratory, Petri dishes); conditions: for Germination rate % 4th day / Germination rate % 8th day / Plant height: spring wheat
Method: (§4) Control—Soaking Seeds in Water;
as §1, §2
(§5) Seed germination energy and rate were calculated in percent as an arithmetic mean of the four experimental results (germination energy on the 4th day, wheat germination on the 8th day, rice and corn germination—on the 7th day). Germination was determined based on the germinating power indicators (length of the roots and sprouts and their wet and dry mass per 100 shoots).
as §3

[3] = test system: winter wheat (Kazan-500 variety); assay: Winter wheat seed treatment with BHMPA: germination energy, germination rate, plant height, roots
Method: as §4, §1, §2, §5, §3

O=P(O)(CO)CO [BHMPA, bis-(hydroxymethyl)-phosphinic acid]
Biological efficacy ([1]; 1·10^−7% solution): 44.1%
Contamination by type: alternaria ([1]; 1·10^−7% solution): 24%
Contamination by type: bacteriosis ([1]; 1·10^−7% solution): 6%
Contamination by type: mold ([1]; 1·10^−7% solution): 3%
Overall contamination ([1]; 1·10^−7% solution): 33.0%
Biological efficacy ([1]; 1·10^−8% solution): 42.4%
Contamination by type: alternaria ([1]; 1·10^−8% solution): 26%
Contamination by type: bacteriosis ([1]; 1·10^−8% solution): 6%
Contamination by type: mold ([1]; 1·10^−8% solution): 2%
Overall contamination ([1]; 1·10^−8% solution): 34.0%
Biological efficacy ([1]; 1·10^−9% solution): 64.4%
Contamination by type: alternaria ([1]; 1·10^−9% solution): 14%
Contamination by type: bacteriosis ([1]; 1·10^−9% solution): 4%
Contamination by type: mold ([1]; 1·10^−9% solution): 3%
Overall contamination ([1]; 1·10^−9% solution): 21.5%
overall seed contamination lower than that of the control by ([1]; 1·10^−9% solution, control 59%): 38%
Overall contamination ([1]; 1·10^−9% solution, listed as bis-(hydroxymethyl)-phosphinic acid): 21.0%
Biological efficacy ([1]; 1·10^−10% solution): 61.0%
Contamination by type: alternaria ([1]; 1·10^−10% solution): 16%
Contamination by type: bacteriosis ([1]; 1·10^−10% solution): 4%
Contamination by type: mold ([1]; 1·10^−10% solution): 3%
Overall contamination ([1]; 1·10^−10% solution): 23.0%
Biological efficacy ([1]; 1·10^−11% solution): 22.0%
Contamination by type: alternaria ([1]; 1·10^−11% solution): 42%
Contamination by type: bacteriosis ([1]; 1·10^−11% solution): 2%
Contamination by type: mold ([1]; 1·10^−11% solution): 2%
Overall contamination ([1]; 1·10^−11% solution): 46.0%
Biological efficacy ([1]; 1·10^−12% solution): 44.1%
Contamination by type: alternaria ([1]; 1·10^−12% solution): 28%
Contamination by type: bacteriosis ([1]; 1·10^−12% solution): 3%
Contamination by type: mold ([1]; 1·10^−12% solution): 2%
Overall contamination ([1]; 1·10^−12% solution): 33.0%
Germination rate % 4th day ([2]; 1·10^−7% solution): 28.0%
Germination rate % 8th day ([2]; 1·10^−7% solution): 70.0%
Plant height ([2]; 1·10^−7% solution): 14.1 cm
Germination rate % 4th day ([2]; 1·10^−9% solution): 33.0%
Germination rate % 8th day ([2]; 1·10^−9% solution): 81.5%
Plant height ([2]; 1·10^−9% solution): 14.3 cm
Germination rate % 4th day ([2]; 1·10^−12% solution): 32.5%
Germination rate % 8th day ([2]; 1·10^−12% solution): 81.3%
Plant height ([2]; 1·10^−12% solution): 14.4 cm
growth-regulating ability compared with Melaphen ([2]; wheat, Tables I-III, 1·10^−9%, 1·10^−11% and 1·10^−12%): lesser impact than that of the prototype Melaphen
Germination energy ([3]; 1·10^−7% solution): 82.5%
Germination rate ([3]; 1·10^−7% solution): 84.0%
Number of roots ([3]; 1·10^−7% solution): 3.3
Plant height ([3]; 1·10^−7% solution): 11.3 cm
Root length ([3]; 1·10^−7% solution): 11.7 cm
Germination energy ([3]; 1·10^−8% solution): 86.0%
Germination rate ([3]; 1·10^−8% solution): 86.0%
Number of roots ([3]; 1·10^−8% solution): 3.1
Plant height ([3]; 1·10^−8% solution): 12.5 cm
Root length ([3]; 1·10^−8% solution): 12.1 cm
Germination energy ([3]; 1·10^−9% solution): 87.4%
Germination rate ([3]; 1·10^−9% solution): 96.0%
Number of roots ([3]; 1·10^−9% solution): 3.4
Plant height ([3]; 1·10^−9% solution): 13.6 cm
Root length ([3]; 1·10^−9% solution): 12.3 cm
Germination energy ([3]; 1·10^−10% solution): 85.7%
Germination rate ([3]; 1·10^−10% solution): 90.0%
Number of roots ([3]; 1·10^−10% solution): 3.2
Plant height ([3]; 1·10^−10% solution): 11.2 cm
Root length ([3]; 1·10^−10% solution): 11.5 cm
Germination energy ([3]; 1·10^−11% solution): 83.9%
Germination rate ([3]; 1·10^−11% solution): 92.0%
Number of roots ([3]; 1·10^−11% solution): 3.3
Plant height ([3]; 1·10^−11% solution): 12.4 cm
Root length ([3]; 1·10^−11% solution): 11.3 cm
Germination energy ([3]; 1·10^−12% solution): 90.0%
Germination rate ([3]; 1·10^−12% solution): 95.0%
Number of roots ([3]; 1·10^−12% solution): 3.3
Plant height ([3]; 1·10^−12% solution): 14.1 cm
Root length ([3]; 1·10^−12% solution): 11.9 cm
